Assay results: patent US20210179620A1, “MESOIONIC I[…] AND DERIVATIVES FOR COMBATING ANIMAL PESTS” (BASF SE, priority 2017, published 2021)

Legend:
[1] = test system: green peach aphid (Myzus persicae); assay: Green peach aphid systemic test, artificial diet in 96-well microtiter plates; assay type: in vivo; settings: 72 h, adult aphids on treated artificial diet, 3 days, read-out: mortality in comparison with untreated controls
From the text: Green Peach Aphid (Myzus persicae):
For evaluating control of green peach aphid (Myzus persicae) through systemic means the test unit consisted of 96-well-microtiter plates containing liquid artificial diet under an artificial membrane.
The compounds were formulated using a solution containing 75% v/v water and 25% v/v DMSO. Different concentrations of formulated compounds were pipetted into the 30 aphid diet, using a custom built pipetter, at two replications.
After application, 5-8 adult aphids were placed on the artificial membrane inside the microtiter plate wells. The aphids were then allowed to suck on the treated aphid diet and incubated at about 23˜1° C. and about 50˜5% relative humidity for 3 days. Aphid mortality and fecundity was then visually assessed.

[2] = test system: vetch aphid (Megoura viciae); assay: Vetch aphid contact or systemic test, broad bean leaf disks in 24-well microtiter plates; assay type: in vivo; settings: foliar, 120 h, sprayed broad bean leaf disks, adult aphids, 5 days, read-out: mortality in comparison with untreated controls
Procedure: Vetch Aphid (Megoura viciae):
For evaluating control of vetch aphid (Megoura viciae) through contact or systemic means the test unit consisted of 24-well-microtiter plates containing broad bean leaf disks.
The compounds were formulated using a solution containing 75% v/v water and 25% v/v DMSO. Different concentrations of formulated compounds were sprayed onto the leaf disks at 2.5 μl, using a custom built micro atomizer, at two replications. After application, the leaf disks were air-dried and 5-8 adult aphids placed on the leaf disks inside the microtiter plate wells. The aphids were then allowed to suck on the treated leaf disks and incubated at about 23+1° C. and about 50+5% relative humidity for 5 days. Aphid mortality and fecundity was then visually assessed.

Work on `Cn1c(C(=O)CCl)c([O-])[n+]2c1SCC2c1cnc(Cl)s1` (centres unmarked) [C-1, 6-(2-chloroacetyl)-3-(2-chlorothiazol-5-yl)-7-methyl-2,3-dihydroimidazo[2,1-b]thiazol-4-ium-5-olate] yielded a mortality at 2500 ppm [1] greater than 75% and a mortality at 2500 ppm [2] greater than 75%.
